Measured values: patent publication US20260125375A1 (Pfizer Inc., priority 2022, published 2026)

Tests used:
CBL-B (residues 36-427) = target: T1, CBL-B (residues 36-427) (Homo sapiens, UniProt Q13191); experiment: Ligand Displacement Assay (LDA), HTRF competitive binding against BODIPY-labeled fluorescent tracer, CBL-B; conditions: geometric mean of the number of tests, read-out: CBL-B Ki (nM) GMean
T1 construct: Purified CBL-B (residues 36-427) and C-CBL (residues 46-435) proteins from baculovirus-infected insect cells; made in house; host or cells: baculovirus-infected insect cells
Text: (§1) Ligand Displacement Assay (LDA)
(§2) The purpose of the homogeneous time-resolved fluorescence energy transfer (HTRF) ligand displacement assay is to determine whether the compounds of the disclosure are competitive with a BODIPY-labeled compound; “fluorescent tracer” aka [6-cyclopropyl-5-(17-{5-[(3,5-dimethyl-2H-pyrrol-2-ylidene-KN)methyl]-1H-pyrrol-2-yl-κN}-15-oxo-5,8,11-trioxa-2,14-diazaheptadecan-1-yl)-N-(3-{3-[(4-methyl-4H-1,2,4-triazol-3-yl)methyl]oxetan-3-yl}phenyl)pyridine-2-carboxamidato](difluorido)boron and to assess CBL-B binding selectivity over C-CBL. The synthesis of this fluorescent tracer compound is described below.
(§3) Purified CBL-B (residues 36-427) and C-CBL (residues 46-435) proteins from baculovirus-infected insect cells were biotin labeled on their amino-terminal AviTag™ epitopes by the E. coli biotin ligase BirA to bind terbium-labeled streptavidin (SA-Tb). After optimizing the assays and determining KD values for the fluorescent tracer to CBL-B and C-CBL, compounds were tested using three-fold serial dilutions in duplicate from a top concentration of […] with a final DMSO concentration of 2%. […] The Ki (nM) values reported are the geometric means (GMean) of the number of tests conducted.

C-CBL (46-435) = target: T2, C-CBL (46-435) (Homo sapiens, UniProt P22681); experiment: Surface Plasmon Resonance (SPR) assay, binding affinity and kinetics, C-CBL; conditions: SPR at 10° C., biotinylated C-CBL (46-435) on streptavidin chip; geometric mean; read-out: C-CBL SPR Kd (nM) GMean
T2 construct: N-terminal biotinylated WT CBL-B (36-427) and C-CBL (46-435) were captured on a streptavidin (SA) coated sensor chip
T2 sequence (P22681 46-435): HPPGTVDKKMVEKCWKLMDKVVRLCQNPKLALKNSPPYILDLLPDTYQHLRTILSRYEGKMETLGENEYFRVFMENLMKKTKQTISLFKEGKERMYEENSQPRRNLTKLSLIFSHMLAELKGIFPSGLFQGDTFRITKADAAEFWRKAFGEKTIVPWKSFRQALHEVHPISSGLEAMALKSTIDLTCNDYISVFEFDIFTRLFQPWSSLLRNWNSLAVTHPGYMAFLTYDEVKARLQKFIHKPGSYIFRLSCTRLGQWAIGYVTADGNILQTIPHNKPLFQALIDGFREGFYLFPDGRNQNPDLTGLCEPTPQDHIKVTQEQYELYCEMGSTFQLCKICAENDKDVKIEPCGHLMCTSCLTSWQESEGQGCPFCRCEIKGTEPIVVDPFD
Description: (§4) Surface Plasmon Resonance (SPR) Assay
(§5) The purpose of the SPR assay is to evaluate the binding affinity and kinetics of the compound of disclosure binding to CBL-B and C-CBL.
(§6) The binding affinity and kinetics of compound binding to CBL-B and C-CBL were measured by Surface Plasmon Resonance (SPR) using either Biacore S200, 8K or 8K+ (Cytiva, Marlborough, MA) instruments. N-terminal biotinylated WT CBL-B (36-427) and C-CBL (46-435) were captured on a streptavidin (SA) coated sensor chip to achieve approximately 5000 to 6000 RUs of surface density. Un-functionalized SA surfaces with no immobilized protein served as reference for binding kinetic analysis. All the samples were prepared in buffer consisting of 10 mM HEPES, 150 mM NaCl, 0.05% Tween-20, 5% glycerol, […], 2% DMSO, pH 7.2. The same buffer was used as the running buffer during the experiments. Compound binding kinetics were measured in either multi-cycle or single-cycle kinetic format.
(§7) Multi-cycle kinetic analysis (MCK): A two-fold, 10-point serial dilution of test compounds was set-up in a 96-well microplate (Greiner; Cat #650101) with a top concentration of either 10 μM or 100 μM. Binding kinetics was measured at 10° C. by injecting serial dilution of compounds onto both reference and CBL immobilized channels at a flow rate of 100 μL/min and association time of 90 seconds. Compound dissociation was monitored for >400 seconds during each cycle. No additional regeneration was used. DMSO calibration curve was obtained before and after compound analysis by injecting 0-4% of DMSO in assay buffer. A suitable compound with known affinity and kinetics was tested once in every experiment as a positive control to assess activity of the captured proteins on the surface.
(§8) Single-cycle kinetic analysis (SCK): A 3-fold, 6-point serial dilution of compounds was set-up in a deep 96-well microplate (Greiner Bio; Cat #780201) with the highest concentration of 1 μM (concentration range: […]). Binding kinetics was measured at 10° C. by injecting serial dilutions of compounds in increasing order onto reference as well as CBL immobilized channels at a flow rate of 100 μL/min and association time of 120 seconds. Compound dissociation was monitored for >5400 seconds. Two buffer blanks were also run in a single-cycle kinetics format before the compound run for double referencing. No additional regeneration was used. DMSO calibration curve was obtained before and after compound analysis by injecting 0-4% of DMSO in the assay buffer. A suitable compound with known affinity and kinetics was tested once in every experiment as a positive control to assess activity of the captured proteins on the surface.

WT CBL-B (36-427) = target: T3, WT CBL-B (36-427) (Homo sapiens, UniProt Q13191); experiment: Surface Plasmon Resonance (SPR) assay, binding affinity and kinetics, CBL-B; conditions: SPR at 10° C., biotinylated WT CBL-B (36-427) on streptavidin chip; geometric mean; read-out: CBL-B SPR Kd (nM) GMean
T3 construct: N-terminal biotinylated WT CBL-B (36-427) and C-CBL (46-435) were captured on a streptavidin (SA) coated sensor chip
Description: as §4, §5, §6, §7, §8

C-CBL (residues 46-435) = target: T4, C-CBL (residues 46-435) (Homo sapiens, UniProt P22681); experiment: Ligand Displacement Assay (LDA), HTRF competitive binding against BODIPY-labeled fluorescent tracer, C-CBL; conditions: geometric mean of the number of tests, read-out: C-CBL Ki (nM) GMean
T4 construct: Purified CBL-B (residues 36-427) and C-CBL (residues 46-435) proteins from baculovirus-infected insect cells; made in house; host or cells: baculovirus-infected insect cells
T4 sequence (P22681 46-435): T2 sequence (P22681 46-435)
Text: as §1, §2, §3

SMILES | Ki (CBL-B (residues 36-427)) | Kd (C-CBL (46-435)) | Kd (WT CBL-B (36-427)) | Ki (C-CBL (residues 46-435))
C[C@H](N[C@H]1C[C@H](O)C1)c1nc(C(F)(F)F)cc2c(-c3cccc([C@H](c4nncn4C)C4CCC4)c3)n[nH]c12 (single isomer, unassigned) [Example C91] | 12.7 nM | 129 nM | 5.1 nM | 105 nM
CC(NC1CC(F)(F)C1)c1nc(C(F)(F)F)cc2c(-c3cccc(C4(Cc5nncn5C)COC4)c3)n[nH]c12 (single isomer, unassigned) [Example C93, 3,3-difluoro-N-{(1ξ)-1-[3-(3-{3-[(4-methyl-4H-1,2,4-triazol-3-yl)methyl]oxetan-3-yl}phenyl)-5-(trifluoromethyl)-1H-pyrazolo[3,4-c]pyridin-7-yl]ethyl}cyclobutan-1-amine] | 3.6 nM | 21.7 nM | 2.3 nM | 15.9 nM
CC(NC1CC(F)(F)C1)c1nc(C(F)(F)F)cc2c(-c3cccc(C4(Cc5nncn5C)COC4)c3)n[nH]c12 (single isomer, unassigned) [Example C94, 3,3-difluoro-N-{(1ξ)-1-[3-(3-{3-[(4-methyl-4H-1,2,4-triazol-3-yl)methyl]oxetan-3-yl}phenyl)-5-(trifluoromethyl)-1H-pyrazolo[3,4-c]pyridin-7-yl]ethyl}cyclobutan-1-amine] | 2.8 nM | 15 nM | 2.5 nM | 14.9 nM
CC(NC1CC2(COC2)C1)c1nc(C(F)(F)F)cc2c(-c3cccc([C@H](c4nncn4C)C4CCC4)c3)n[nH]c12 (single isomer, unassigned) [Example C97] | 31.8 nM | 242 nM | 9.6 nM | 141 nM
CC(NC1CC2(COC2)C1)c1nc(C(F)(F)F)cc2c(-c3cccc([C@H](c4nncn4C)C4CCC4)c3)n[nH]c12 (single isomer, unassigned) [Example C98] | 26.9 nM | 205 nM | 11.3 nM | 109 nM
CN[C@@H](C)c1nc(C(F)(F)F)cc2c(-c3cccc(C4(Cc5nncn5C)COC4)c3)n[nH]c12 (single isomer, unassigned) [Example D37] | 22.2 nM | 68.6 nM | 7.9 nM | 64.5 nM
CN[C@H](C)c1nc(C(F)(F)F)cc2c(-c3cccc(C4(Cc5nncn5C)COC4)c3)n[nH]c12 (single isomer, unassigned) [Example D38] | 34 nM | 110 nM | 10 nM | 135 nM
C[C@@H](c1nc(C(F)(F)F)cc2c(-c3cccc(C4(Cc5nncn5C)COC4)c3)n[nH]c12)N(C)C (single isomer, unassigned) [Example D39] | 42.1 nM | 164 nM | 14.9 nM | 229 nM
C[C@H](c1nc(C(F)(F)F)cc2c(-c3cccc(C4(Cc5nncn5C)COC4)c3)n[nH]c12)N(C)C (single isomer, unassigned) [Example D40] | 23.9 nM | 88.5 nM | 5.5 nM | 98.1 nM
C[C@@H](c1nc(C(F)(F)F)cc2c(-c3cccc(C4(Cc5nncn5C)COC4)c3)n[nH]c12)N1CCC1 (single isomer, unassigned) [Example D41] | 18.5 nM | 50.8 nM | 6.2 nM | 65.5 nM
